Paper PMC9021566, “Design, Synthesis, and Antitumor Activity Study of All-Hydrocarbon-Stapled B1-Leu Peptides” (Frontiers in Chemistry, 2022)
Bridge positions count the residues as written; N and C are the ends. Square brackets hold non-standard residues; d marks the D form. Ends that are not written are not given here. Peptide text beside a SMILES is read from it. R8 = C=CCCCCCC[C@@](C)(N)C(=O)O; S5 = C=CCCC[C@](C)(N)C(=O)O

What was measured:
[1] = On-resin ring-closing olefin metathesis (all-hydrocarbon stapling, S5/S5 i,i+4 or R8/S5 i,i+7), first-generation Grubbs catalyst (3 equiv); then Fmoc removal, TFA cleavage, RP-HPLC; conditions: the molecule shown is the open-chain precursor, 21-membered ring, 1,2-dichloroethane (dry), 25.0 °C, 4.0 h
[2] = Circular dichroism spectroscopy, percent helicity; type: physicochemical; conditions: CD, TFE/water (1:1), 0.1 mg/ml, 20°C
Protocol: Peptides were dissolved in TFE/water (1:1, v/v, 0.1 mg/ml). CD data were recorded in 10-mm path length, a quartz cell at 20°C. Percent helicity was calculated by the following equation ([Wang et al., 2006]). α=[θ]222/[θ]max×100% [θ]222 is the molar ellipticity of 222 nm; [θ]max = (−44,000 + 250T) (1 − k/n), where k = 4, n is the numbers of amino acids, and T = 20°C.

[3] = biological target: α-chymotrypsin (Bos taurus, UniProt P00766); assay: in vitro; conditions: for Degradation during protease exposure: 1 h
Protocol: Peptides in DMSO solution (1 mM) was mixed with α-chymotrypsin in PBS buffer (0.5 ng/μl) containing 2 mM CaCl2 and incubated at 37°C. The percentage of peptide was measured by HPLC at 0, 5, 10, 20, 30, and 60 min([Wang et al., 2020]).

[4] = system: rabbit red blood cells; conditions: 4% rabbit red blood cells, 1 h, 37°C
Protocol: Two hundred microliters of 4% rabbit red blood cells in a 96-well plate was added different concentrations of peptides. After 1 h of incubation at 37°C and following centrifugation, the release of hemoglobin was monitored by the absorbance at 450 nm of supernatant. Zero hemolysis was determined without adding any other reagents, and 100% hemolysis was determined in 10% Triton X-100. Hemolysis percentage hemolysis was calculated as: (Apeptide − Ablank)/(ATriton − Ablank) × 100%. All hemolysis determinations were conducted in three repeated experiments ([Deng et al., 2015]).

[5] = system: MCF-7; conditions: read-out: IC50 MCF-7; CCK-8, 48 h
Protocol: (§1) MCF-7, HUH-7, U87, and Nthy-ori 3-1 cell lines were used to test cell viability. All the cell lines were cultured in a humid environment at 37°C with 5% CO2. The anticancer activity of B1 and its derivatives were evaluated by the CCK-8 reagent. All peptides tested were dissolved in DMSO and finally added to each well in 1‰ volume. The cells were seeded in a 96-well plate at a number of 5 × 10^3 cells per well. After overnight incubation, they were administered with different concentrations of peptides. Ten percent CCK-8 solution without FBS was added to each well after 48 h. After incubation at 37°C for 30 min, the optical density (OD) at 450 nm was recorded with a microplate reader ([Deng et al., 2015]).

[6] = system: U87; conditions: read-out: IC50 U87; CCK-8, 48 h
Protocol: as §1

[7] = system: HUH-7; conditions: read-out: IC50 HUH-7; CCK-8, 48 h
Protocol: as §1

[8] = α-chymotrypsin (0.5 ng/μl) in PBS buffer

Row | Compound | ring closure, overall yield [1] [%] | Helicity (%) [2] [%] | half-life ([3]; α-chymotrypsin) [min] | HC50, half hemolysis concentration [4] [µM] | IC50 [5] [µM] | IC50 [6] [µM] | IC50 [7] [µM] | half-life [3, 8] [min] | Degradation during protease exposure ([3]; α-chymotrypsin)
1 | C=CCCC[C@](C)(NC(=O)[C@H](CCCNC(=N)NS(=O)(=O)c1c(C)c(C)c2c(c1C)CC(C)(C)O2)NC(=O)[C@H](Cc1ccccc1)NC(=O)[C@H](Cc1ccccc1)NC(=O)[C@](C)(CCCC=C)NC(=O)[C@H](CCCCNC(=O)OC(C)(C)C)NC(=O)[C@H](Cc1ccccc1)NC(=O)[C@H](CCCNC(=N)NS(=O)(=O)c1c(C)c(C)c2c(c1C)CC(C)(C)O2)NC(=O)[C@H](CCCCNC(=O)OC(C)(C)C)NC(=O)[C@@H](NC(=O)OCC1c2ccccc2-c2ccccc21)C(C)C)C(=O)N[C@@H](CC(C)C)C(=O)N[C@@H](CCCCNC(=O)OC(C)(C)C)C(=O)N[C@@H](CCCCNC(=O)OC(C)(C)C)C(=O)N[C@@H](CC(C)C)C(=O)N[C@H](C(N)=O)C(C)C | 66 |  |  |  |  |  |  |  | 
2 | C=CCCC[C@](C)(NC(=O)[C@H](Cc1ccccc1)NC(=O)[C@H](Cc1ccccc1)NC(=O)[C@H](CCCCNC(=O)OC(C)(C)C)NC(=O)[C@](C)(CCCC=C)NC(=O)[C@H](Cc1ccccc1)NC(=O)[C@H](CCCNC(=N)NS(=O)(=O)c1c(C)c(C)c2c(c1C)CC(C)(C)O2)NC(=O)[C@H](CCCCNC(=O)OC(C)(C)C)NC(=O)[C@@H](NC(=O)OCC1c2ccccc2-c2ccccc21)C(C)C)C(=O)N[C@@H](CCCCNC(=O)OC(C)(C)C)C(=O)N[C@@H](CC(C)C)C(=O)N[C@@H](CCCCNC(=O)OC(C)(C)C)C(=O)N[C@@H](CCCCNC(=O)OC(C)(C)C)C(=O)N[C@@H](CC(C)C)C(=O)N[C@H](C(N)=O)C(C)C | 64 |  |  |  |  |  |  |  | 
3 | CC(C)C[C@H](NC(=O)[C@H](CCCCN)NC(=O)[C@H](CCCNC(=N)N)NC(=O)[C@H](Cc1ccccc1)NC(=O)[C@H](Cc1ccccc1)NC(=O)[C@]1(C)CCC/C=C\CCC[C@](C)(NC(=O)[C@@H](N)C(C)C)C(=O)N[C@@H](CCCNC(=N)N)C(=O)N[C@@H](Cc2ccccc2)C(=O)N[C@@H](CCCCN)C(=O)N1)C(=O)N[C@@H](CCCCN)C(=O)N[C@@H](CCCCN)C(=O)N[C@@H](CC(C)C)C(=O)N[C@H](C(N)=O)C(C)C [B1-L-1, VS5RFKS5FFRKLKKLV-NH2] (H-V[S5]RFK[S5]FFRKLKKLV-NH2; staple (Z) 2-6) |  | 47.2 | > 60 |  |  |  |  |  | 
4 | CC(C)C[C@H](NC(=O)[C@H](CCCCN)NC(=O)[C@]1(C)CCCC=CCCC[C@](C)(NC(=O)[C@H](Cc2ccccc2)NC(=O)[C@H](CCCNC(=N)N)NC(=O)[C@H](CCCCN)NC(=O)[C@@H](N)C(C)C)C(=O)N[C@@H](CCCCN)C(=O)N[C@@H](Cc2ccccc2)C(=O)N[C@@H](Cc2ccccc2)C(=O)N1)C(=O)N[C@@H](CCCCN)C(=O)N[C@@H](CCCCN)C(=O)N[C@@H](CC(C)C)C(=O)N[C@H](C(N)=O)C(C)C [B1-L-2, VKRFS5KFFS5KLKKLV-NH2] (H-VKRF[S5]KFF[S5]KLKKLV-NH2; staple 5-9; N-terminus assumed) |  | 35.5 |  | >80 | 6.59 ± 0.42 | 8.86 ± 1.43 | 6.18 ± 0.63 | > 60 | 
5 | CC(C)C[C@H](NC(=O)[C@H](CCCCN)NC(=O)[C@H](CCCCN)NC(=O)[C@H](CC(C)C)NC(=O)[C@]1(C)CCCC=CCCC[C@](C)(NC(=O)[C@H](CCCCN)NC(=O)[C@H](Cc2ccccc2)NC(=O)[C@H](CCCNC(=N)N)NC(=O)[C@H](CCCCN)NC(=O)[C@@H](N)C(C)C)C(=O)N[C@@H](Cc2ccccc2)C(=O)N[C@@H](Cc2ccccc2)C(=O)N[C@@H](CCCNC(=N)N)C(=O)N1)C(=O)N[C@H](C(N)=O)C(C)C [B1-L-3, VKRFKS5FFRS5LKKLV-NH2] (H-VKRFK[S5]FFR[S5]LKKLV-NH2; staple 6-10; N-terminus assumed) |  | 37 |  | >80 | 5.48 ± 0.89 | 3.59 ± 1.2 | 5.96 ± 0.54 | > 60 | 
6 | CC(C)C[C@@H]1NC(=O)[C@H](CCCCN)NC(=O)[C@@](C)(NC(=O)[C@H](Cc2ccccc2)NC(=O)[C@H](Cc2ccccc2)NC(=O)[C@H](CCCCN)NC(=O)[C@H](CCCCN)NC(=O)[C@H](Cc2ccccc2)NC(=O)[C@H](CCCNC(=N)N)NC(=O)[C@H](CCCCN)NC(=O)[C@@H](N)C(C)C)CCCC=CCCC[C@@](C)(C(=O)N[C@@H](CC(C)C)C(=O)N[C@H](C(N)=O)C(C)C)NC(=O)[C@H](CCCCN)NC1=O [B1-L-4, VKRFKKFFS5KLKS5LV-NH2] (H-VKRFKKFF[S5]KLK[S5]LV-NH2; staple 9-13; N-terminus assumed) |  | 35 |  | >80 | 15.2 ± 1.02 | 17.9 ± 3.23 | 13.4 ± 1.92 | > 60 | 
7 | CC(C)C[C@H](NC(=O)[C@H](CCCCN)NC(=O)[C@]1(C)CCCC=CCCCCCC[C@@](C)(NC(=O)[C@@H](N)C(C)C)C(=O)N[C@@H](CCCNC(=N)N)C(=O)N[C@@H](Cc2ccccc2)C(=O)N[C@@H](CCCCN)C(=O)N[C@@H](CCCCN)C(=O)N[C@@H](Cc2ccccc2)C(=O)N[C@@H](Cc2ccccc2)C(=O)N1)C(=O)N[C@@H](CCCCN)C(=O)N[C@@H](CCCCN)C(=O)N[C@@H](CC(C)C)C(=O)N[C@H](C(N)=O)C(C)C [B1-L-5, VR8RFKKFFS5KLKKLV-NH2] (H-V[R8]RFKKFF[S5]KLKKLV-NH2; staple 2-9; N-terminus assumed) |  | 24.8 |  | >80 | 14 ± 0.73 | 14.3 ± 2.35 | 13.8 ± 1.53 | > 60 | 
8 | CC(C)C[C@H](NC(=O)[C@H](CCCCN)NC(=O)[C@]1(C)CCCC=CCCCCCC[C@@](C)(NC(=O)[C@H](Cc2ccccc2)NC(=O)[C@H](CCCNC(=N)N)NC(=O)[C@H](CCCCN)NC(=O)[C@@H](N)C(C)C)C(=O)N[C@@H](CCCCN)C(=O)N[C@@H](Cc2ccccc2)C(=O)N[C@@H](Cc2ccccc2)C(=O)N[C@@H](CCCNC(=N)N)C(=O)N[C@@H](CCCCN)C(=O)N[C@@H](CC(C)C)C(=O)N1)C(=O)N[C@H](C(N)=O)C(C)C [B1-L-6, VKRFR8KFFRKLS5KLV-NH2] (H-VKRF[R8]KFFRKL[S5]KLV-NH2; staple 5-12; N-terminus assumed) |  | 39.8 |  | >80 | 5.15 ± 1.04 | 4.58 ± 0.93 | 5.89 ± 0.43 | 55.3 | 
9 | CC(C)C[C@@H]1NC(=O)[C@H](CCCCN)NC(=O)[C@H](CCCNC(=N)N)NC(=O)[C@H](Cc2ccccc2)NC(=O)[C@H](Cc2ccccc2)NC(=O)[C@](C)(NC(=O)[C@H](CCCCN)NC(=O)[C@H](Cc2ccccc2)NC(=O)[C@H](CCCNC(=N)N)NC(=O)[C@H](CCCCN)NC(=O)[C@@H](N)C(C)C)CCCCCCC=CCCC[C@@](C)(C(=O)N[C@@H](CC(C)C)C(=O)N[C@H](C(N)=O)C(C)C)NC(=O)[C@H](CCCCN)NC1=O [B1-L-7, VKRFKR8FFRKLKS5LV-NH2] (H-VKRFK[R8]FFRKLK[S5]LV-NH2; staple 6-13; N-terminus assumed) |  | 31.6 |  | >80 | 13.4 ± 1.22 | 12.7 ± 1.63 | 7.49 ± 1.2 | > 60 | 
10 | VKRFKKFFRKLKKLV-NH2 [B1-Leu, VKRFKKFFRKLKKLV-NH2] |  | 23.5 |  | >80 | 13.4 ± 0.53 | 16.2 ± 3.32 | 11.8 ± 0.72 | 8.5 | completely degraded
11 | VKRFKKFFRKLKKSV-NH2 [B1, VKRFKKFFRKLKKSV-NH2, reference compound] |  | 8.9 |  | >80 | > 50 | > 50 | > 50 | 8.3 | completely degraded
